Measured values taken from patent US6713057B1, “Compositions and methods for modulating serum cholesterol” (The Johns Hopkins University, priority 1999, dated 2004).

Experiments:
[1] = test system: SREBP-1; experiment: SREBP-1 proteolysis (maturation) assay, Western immunoblot of nuclear fractions, HH-25 hepatocytes; format: cell-based, human; conditions: for increase in mass of the mature form of SREBP-1: sterol supplemented media
Description: FIGS. 2A-2C illustrate effects of TNF-α sphingomyelinase and C2-ceramide on the kinetics of SREBP-1 maturation—FIGS. 2A-2C is explained in more detail as follows: Cells were maintained in media supplemented with 1 μg/ml 25-hydroxy cholesterol and 15 μg/ml cholesterol for 24 hours before the experiment. The cells were treated for the indicated time as described in materials and methods. The cells were then harvested in PBS, pelleted and frozen. Lysis and nuclear fractionation were performed as described. Nuclear fractions (50 μg of protein) were electrophoresed on a 7.5% polyacrylamide gel and transferred to a PVDF membrane. Western blotting was performed as described. Band intensity was quantified via densitometry. Error bars represent ±one standard deviation from the mean. 2A) The kinetics of SREBP maturation as measured by the increase in mature SREBP-1 are plotted. Fold increase was calculated by comparing each time point to the corresponding control value (TNF-α is represented by stippled bars, bacterial sphingomyelinase is represented by light gray bars and C2-ceramide by the dark bars.) 2B) Cells were treated with TNF-α (10 ng/ml) and prepared as described above. The bands corresponding to the precursor and mature forms of SREBP-1 were quantified and their ratio plotted. 2C) Representative Western blots from which numerical data was derived. Incubation time is indicated above and applies to all conditions. The membranes were exposed to film for 15 seconds. P and M denote the precursor and mature forms of SREBP-1 respectively.
FIGS. 3A-3C show effects of TNF-α, sphingomyelinase and C2-ceramide concentration on SREBP-1 maturation—The FIGS. 3A-3C are explained in more detail as follows. […] Nuclear pellets were prepared and electrophoresed (50 μg of protein). The bands corresponding to the precursor and mature forms of SREBP-1 were quantified. The precursor to mature ratios were normalized to a single control to facilitate comparison. The control ratio was arbitrarily assigned a value of 1. A Unit of sphingomyelinase activity hydrolyzes 1.0 μmol of sphingomyelin per minute at 37° C. FIG. 3A (ng/ml TNF-α); FIG. 3B (mUnits of sphingomyelinase); FIG. 3C (micromolar C2-ceramide).
HH-25 cells were grown in alpha-minimal essential media supplemented with 100 units/ml penicillin, 100 µg/ml streptomycin, […], 0.1 μM selenium, 5.5 μg/ml transferrin, 0.5 μg/ml linoleic acid and 10% fetal bovine serum (media A). The cells were incubated in serum free F10 media for 30 to 60 minutes prior to initiating treatment with TNF-α, C2-ceramide or sphingomyelinase.
Following treatment, the cells were washed with 5 ml of PBS and pelleted at 1500×g for 10 minutes at 4° C. The pellet was stored at −70° C. and lysed in 0.5 ml buffer A (10 mM HEPES pH 7.4, 5 mM EDTA, 0.25 mM EGTA, 50 mM NaF, 7 mM β-mercaptoethanol, 0.35M sucrose, 0.1% NP-40 and protease inhibitors 1 mM PMSF, 2 μg/ml aprotinin, 10 μg/ml leupeptin and 5 μg/ml pepstatin). The lysate was centrifuged at 12,000×g for 15 minutes at 4° C. to prepare a nuclear fraction. The protein concentration of these samples was determined by the method of Lowry et al. al. (19).
50 μg of nuclear protein was separated by gel electrophoresis on a 7.5% polyacrylamide gel. Gels were calibrated by high range molecular weight markers (Bio-Rad product #161-0303, New York, N.Y.) which were transferred to a polyvinyl difluoride (PVDF) membrane and visualized with coomassie staining. Rabbit polyclonal antibodies against SREBP-1 were used at 0.5 μg/ml according to the instructions of the manufacturer. The antibody was visualized with horseradish peroxidase conjugated anti-rabbit IgG made in donkey (Amersham) using the Enhanced Chemiluminescence (ECL) Western Blotting Detection System Kit (Amersham). PVDF membranes were exposed to Hyperfilm ECL (Amersham) for the indicated time. Immunoblots were quantified via densitometry performed on a PDI densitometer scanner (model 20J7) coupled to a SPARC IRC workstation.

[2] = test system: SREBP-1; experiment: Electrophoretic mobility shift assay, SREBP-1 binding to SRE probe; format: cell-based, human; conditions: for amount of probe bound (electrophoretically retarded) by mature SREBP-1: TNF-α 10 ng/ml, sphingomyelinase 100 mUnits, C2-ceramide 10 μM
Description: FIGS. 6A-6D show electrophoretic mobility shift assays. FIGS. 6A-D are explained in more detail as follows. Cells were maintained in sterol supplemented media. Nuclear pellets were prepared and assayed as described in materials and methods. Probe that has been bound by mature SREBP-1 is indicated as “Bound”. Unbound probe is indicated as “Free”. The kinetics (in minutes) of SREBP-1 binding to the probe in response to treatment with (FIG. 6A). TNF-α (10 ng/ml), (FIG. 6B) sphingomyelinase (100 mUnits) and (FIG. 6C) C2-ceramide ([…]). (FIG. 6D). The cells were treated with either TNF-α (10 ng/ml), sphingomyelinase (100 mUnits) or C2-ceramide (10 μM) for 15 minutes. Supershift assays were then performed with antibodies raised against the DNA binding domain of SREBP-1. The presence or absence of antibody is indicated by (+) and (−) respectively. Pre-immune IgG was used as a control.
Gel mobility shift assays were performed as follows. Each 20 μl reaction mixture contained 8-10 μg of nuclear protein plus a α-[^32P]-labeled 25-base pair oligonucleotide probe containing the SREBP-binding site (14) in binding buffer (10 mM Hepes, pH 7.5, 0.5 mM spermidine, 0.15 mM EDTA, 10 mM dithiothreitol, 0.35 mM sucrose). The reaction mixture was incubated at room temperature for 15 min and loaded directly onto a 6.5% polyacrylamide (49:0.6 acrylamide/bisacrylamide) gel in a buffer of 25 mM Tris borate (pH 8.0), 0.25 mM EDTA. In some experiments, antisera specific for SREBP or preimmune sera were added to reaction mixtures to determine the composition of protein-probe complexes. For these “supershift” assays, extracts were incubated with 1 μl of preimmune sera or an equal volume of anti-SREBP antisera at 4° C. for 30 min prior to addition of α-[^32P]-labeled probe. In all experiments, proteins were separated by electrophoresis at 200 V for 2 h at room temperature. Gels were dried and exposed to Kodak XAR film with intensifying screens. Assays were repeated with nuclear extracts obtained from three unique experiments and evaluated by phosphoimage analysis to ensure reproducibility of results.

[3] = test system: HH-25 cells; experiment: DNA laddering assay (apoptosis) in hepatocytes; conditions: 1 hour treatment, concentrations as in maturation studies, refed 6 hours
Description: Cells were treated with either TNF-α, sphingomyelinase or C2-ceramide for 1 hour at concentrations identical to those used in the SREBP-1 maturation studies. The cells were then washed twice with minimal essential medium and refed with media A for 6 hours. […] Genomic DNA was electrophoresed and stained with ethidium bromide.

Row | rate of accumulation of active, nuclear SREBP-1 compared with TNF-α or sphingomyelinase [2] | amount of probe bound (electrophoretically retarded) by mature SREBP-1 [2] | Compound | Emax ([1]; Homo sapiens, Hepatocyte, 1 μM of C2-ceramide, read-out: percent of maximal effect on SREBP-1 maturation) | persistence of the increase in mature SREBP-1 ([1]; after 60 minutes) | induction of apoptosis (160 bp DNA ladder) [3] | concentration giving maximal effect on SREBP-1 maturation [1] | dependence of extent of SREBP-1 maturation on concentration [1] | maximal decrease in the precursor to mature SREBP-1 ratio ([1]; 45 minutes after TNF-α (10 ng/ml) was added) | increase in mass of the mature form of SREBP-1 ([1]; after 5 minutes of incubation) | increase in mass of the mature form of SREBP-1 ([1]; after 15 minutes of treatment)
1 | more rapid accumulation | increases | CCCCCCCCCCCCC/C=C/[C@@H](O)[C@H](CO)NC(C)=O [C2-ceramide, N-acetylsphingosine, reference compound] | 81% | persistent elevation | did not induce apoptosis | – | – | – | – | –
2 | – | increases with time | TNF-α | – | – | did not induce apoptosis | 10 ng/mL | did not vary appreciably with concentration | 1.5 fold | 2 fold | 3 fold
